Measured values from BindingDB's records for doi:10.1016/j.bmcl.2013.04.070 (2013).

Biological target: Presenilin-1 (Homo sapiens, UniProt P49768)
Assay: Modulation of human gamma-secretase presenilin-1 subunit expressed in CHO cells coexpressing human APP assessed as decrease in amyloid beta 42 generation after 24 hrs by ELISA

- IC50: 31.6 µM
Structure (SMILES): CCCCCCCCOC(=O)C1(C)CCc2c(C)c(OCC(=O)O)c(C)c(C)c2O1 (stereo unspecified)
